Experiment in all cases: growth of human tumour cells (NCI), 48 h
In test [1] the test system is A498.
For test [2], the system named is A549.
For test [3], the system named is COLO 205.
For test [4], the system named is HOP-18.
Test [5] relates to HOP-92.
Test [6] concerns KM12.
The subject of test [7] is MOLT-4.
The test system of test [8] is NCI-H226.
The test system of test [9] is OVCAR-3.
The subject of test [10] is OVCAR-4.
Test [11] has as its system RPMI-8226.
Test [12] deals with SF-268.
For test [13], the system named is SF-295.
The subject of test [14] is SF-539.
Test [15] deals with SK-MEL-5.
Test [16] relates to SK-OV-3.
Test [17] deals with SW-620.
Test [18] deals with MDA-MB-231.
The test system of test [19] is PC-3.
The test system of test [20] is T47D.

Structures are written as SMILES.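 Protocol summary: plate cells (96-well), add compound at 5 concentrations, incubate 48 h, interpolate endpoints linearly. GI50 is the concentration that inhibits growth by half.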 Activity calls are given as the source filed them. Cut-off read from the data, not from the text of the source: active = GI50 up to about 1.1 µM and inactive = higher.

For `CCOC(=O)c1c(NNc2ccccc2)nc2ccccc2c1-c1ccccc1`, the GI50 in [1] was > 100 µM (inactive); in [2], 34.5 µM (inactive); in test [3], 30 µM (inactive); in test [4] it was 28.6 µM (inactive); in test [5], 27.9 µM (inactive); in [6], 31.4 µM (inactive). Moreover, the GI50 is 12.8 µM (inactive) in test [7]; 28.2 µM (inactive) in test [8]; 21.1 µM (inactive) in [9]; 37.5 µM (inactive) in test [10]; 11.9 µM (inactive) in test [11]; 31.1 µM (inactive) in test [12]. Moreover, the GI50 in test [13] is 42.6 µM (inactive); in [14], 25.6 µM (inactive); in test [15], 20.4 µM (inactive); in [16], 65.5 µM (inactive); in [17], 50.4 µM (inactive).

As to `FC(F)(F)C12C34C=CC5(CCC6(C=CC1(CC3)O6)C52C(F)(F)F)O4` (stereo unspecified), the GI50 in test [1], in test [2], in test [3], in test [4], in test [5] and in [6] was > 100 µM (inactive) in each case. Moreover, the GI50 in [7], in test [8], in test [9], in test [10], in test [12] and in [13] was > 100 µM (inactive) each time. In addition, the GI50 in test [14], in test [16] and in test [17] was > 100 µM (inactive) throughout.

In the case of `CC(=O)OC1C/C(C)=C/[C@H](O)CC(C)/C=C/[C@@]2(C)CCC(C(C)(C)O)C12` (stereo partly specified), the GI50 in test [1], in test [2], in test [3], in [4], in test [5] and in test [6] was > 100 µM (inactive) in each case. The GI50 in test [7], in test [8], in [9], in test [10], in test [11] and in test [12] was > 100 µM (inactive) throughout. Also, the GI50 in test [13], in test [14], in [15], in test [16] and in test [17] was > 100 µM (inactive) throughout.

Take `Nc1ccc(-c2cc(C(=O)Nc3nccs3)nc(S)n2)cc1`: the GI50 was > 100 µM (inactive) in [1]; > 100 µM (inactive) in test [2]; > 100 µM (inactive) in [3]; 61.1 µM (inactive) in [4]; > 100 µM (inactive) in test [5]; > 100 µM (inactive) in test [6]. The GI50 in test [7], in test [8], in [9], in test [10], in test [11] and in test [12] was > 100 µM (inactive) each time. The GI50 in [14], in [15], in test [16] and in test [17] was > 100 µM (inactive) in each case.

`Cn1c(N)[n+](C(=O)OCc2ccccc2)c(=O)c2c1ncn2C(=O)OCc1ccccc1`: the GI50 in test [1] was 30.8 µM (inactive); in [2], 73.1 µM (inactive); in test [3], > 100 µM (inactive); in [4] it was 78.9 µM (inactive); in test [6], > 100 µM (inactive); in test [7] it was > 100 µM (inactive). Further, the GI50 in test [8] was 18 µM (inactive); in test [9] it was > 100 µM (inactive); in test [10], 65.2 µM (inactive); in test [11], > 100 µM (inactive); in [12], 28.1 µM (inactive); in test [13], 49.5 µM (inactive). The GI50 in test [15] is > 100 µM (inactive); in test [16] it was 28.9 µM (inactive); in test [17], > 100 µM (inactive).

For the molecule `Cc1c(/C=N/NS(=O)(=O)c2ccccc2)no[n+]1[O-]`, the GI50 in test [1], in test [2], in [3], in test [4], in [5] and in test [6] was > 100 µM (inactive) in each case. The GI50 in test [7], in test [9], in test [10], in test [11], in [12] and in test [13] was > 100 µM (inactive) throughout. Also, the GI50 in [14], in test [15], in test [16] and in [17] was > 100 µM (inactive) in each case.

With `O=C1C(Cl)C(c2cc(Br)ccc2O)N1n1cnc2ccccc2c1=O` (stereo unspecified), the GI50 in test [1] is 65.8 µM (inactive); in [2], 26.9 µM (inactive); in test [3], 27.7 µM (inactive); in test [4], 6.3 µM (inactive); in test [5] it was 15.7 µM (inactive); in [6] it was 20.7 µM (inactive). For the same molecule, the GI50 in [7] is 2.75 µM (inactive); in test [8], 6.87 µM (inactive); in [9], 6.93 µM (inactive); in [10], 10.7 µM (inactive); in test [11] it was 5.4 µM (inactive); in test [12] it was 2.53 µM (inactive). Besides, the GI50 in test [13] was 16.8 µM (inactive); in test [14], 18.5 µM (inactive); in test [15] it was 16.8 µM (inactive); in test [16], 20 µM (inactive); in test [17], 10 µM (inactive).

Consider `O=C1OC(c2ccccc2)=N/C1=C\c1ccc(N(CCCl)CCCl)cc1`, for which the GI50 in test [1] was > 100 µM (inactive); in test [2], > 100 µM (inactive); in test [3] it was > 100 µM (inactive); in [5], > 52.5 µM (inactive); in [6], > 92.3 µM (inactive); in [18], > 100 µM (inactive). Also, the GI50 in test [7] was 44.9 µM (inactive); in [8], > 100 µM (inactive); in [9], > 76.2 µM (inactive); in [10], > 100 µM (inactive); in test [19] it was > 86.5 µM (inactive); in [11], 35.1 µM (inactive). Moreover, the GI50 in [12] is > 88.7 µM (inactive); in test [13], > 100 µM (inactive); in [14], > 100 µM (inactive); in test [15], > 100 µM (inactive); in [16] it was > 100 µM (inactive); in [17] it was > 100 µM (inactive). Besides, the GI50 in [20] was 14.5 µM (inactive).

Take `CN(C)CCn1c(=O)c2ccc(NCCCN(C)CCCNc3ccc4c(=O)n(CCN(C)C)c(=O)n5c6ccc([N+](=O)[O-])cc6c(=O)c3c45)c3c(=O)c4cc([N+](=O)[O-])ccc4n(c1=O)c23`: the GI50 in [1] was 0.0478 µM (active); in test [2] it was < 0.01 µM (active); in [3], < 0.01 µM (active); in test [5], < 0.0354 µM (active); in test [6] it was < 0.01 µM (active); in test [18], < 0.021 µM (active). The GI50 in [7] is < 0.01 µM (active); in [8] it was < 0.01 µM (active); in test [9], < 0.033 µM (active); in test [10] it was < 0.01 µM (active); in [19] it was < 0.01 µM (active); in [11], < 0.01 µM (active). Besides, the GI50 is 0.0163 µM (active) in [12]; 0.0136 µM (active) in [13]; < 0.01 µM (active) in [14]; < 0.0115 µM (active) in test [15]; < 0.0258 µM (active) in [16]; < 0.0112 µM (active) in test [17]. The GI50 in test [20] is 0.0968 µM (active).

For the molecule `CCN(CC)CCSc1c(C(C)=O)c(=O)n(-c2ccccc2)c(=S)n1-c1ccccc1`, the GI50 is 19.1 µM (inactive) in [1]; 13.8 µM (inactive) in test [2]; 1.8 µM (inactive) in test [3]; 1.9 µM (inactive) in test [5]; 17.2 µM (inactive) in [6]; 13.1 µM (inactive) in test [18]. Further, the GI50 in test [7] was 2.77 µM (inactive); in test [8] it was > 40.3 µM (inactive); in test [9], 2.81 µM (inactive); in test [10], 9.1 µM (inactive); in test [19] it was 4.04 µM (inactive); in [11] it was 2.13 µM (inactive). In addition, the GI50 is 15.8 µM (inactive) in test [12]; > 78 µM (inactive) in [13]; 2.4 µM (inactive) in [14]; 13.8 µM (inactive) in [15]; 34 µM (inactive) in [16]; 2.25 µM (inactive) in test [17]. The GI50 in [20] is 2.58 µM (inactive).

In the case of `CN1C(=O)N(C)C(N2CCCC2)c2c1nc1ccccn1c2=O` (stereo unspecified), the GI50 is 34.8 µM (inactive) in [1]; > 100 µM (inactive) in test [2]; > 100 µM (inactive) in test [3]; > 100 µM (inactive) in test [4]; 42.7 µM (inactive) in [5]; > 100 µM (inactive) in test [6]. Moreover, the GI50 is > 100 µM (inactive) in [7]; > 100 µM (inactive) in test [8]; 77.3 µM (inactive) in test [9]; 58.1 µM (inactive) in test [10]; 88.7 µM (inactive) in test [11]; > 100 µM (inactive) in test [12]. Moreover, the GI50 in test [13] is > 100 µM (inactive); in [14], 33.3 µM (inactive); in [16] it was 78.5 µM (inactive); in test [17], 60.5 µM (inactive).

The values above are taken from ChEMBL document CHEMBL1201862, “PubChem BioAssay data set” (2004).
